Structures can show the parent of a compound that is named as a salt. Where two headings read alike, the source gives them in different places.
Molecular target: T1, methionine aminopeptidase-2 (MetAP2) (Homo sapiens, UniProt P50579)
T1 construct: made in house; host or cells: insect cells, baculovirus system (secreted, purified from culture supernatant)
Assay: Inhibition of MetAP2 enzyme activity (96-well, Met-Ala-Ser substrate, L-amino acid oxidase/peroxidase/ortho-dianisidine, 450 nm)
Type: biochemical
Conditions: pH 7.4, Met-Ala-Ser substrate, 20 minutes
Protocol: The ability of compounds of the present invention to inhibit methionine aminopeptidase 2 was evaluated using the following assay.
Assays for MetAP2 enzyme activity and MetAP2 inhibition were performed in 96-well microtiter plates. Compounds to be tested for MetAP2 inhibition were dissolved in dimethyl-sulfoxide at 10 mM and diluted ten-fold in assay buffer ([…], pH 7.4, 100 mM NaCl). Ten microliters of solution of each compound to be tested for inhibition were introduced into each cell of the plate, with each compound being tested in triplicate.
The absorbence at 450 nanometers was measured every 20 seconds over a period of twenty minutes using an automaic plate reader (Molecular Devices, CA, USA). The Vmax in mOD/min, calculated for each well was used to represent MetAP2 activity. The IC50 for each inhibitor was obtained by plotting the remaining MetAP2 activity versus inhibitor concentration.

[1] = IC50, recombinant MetAP2 4 μg/mL

T1 sequence (P50579 whole entry): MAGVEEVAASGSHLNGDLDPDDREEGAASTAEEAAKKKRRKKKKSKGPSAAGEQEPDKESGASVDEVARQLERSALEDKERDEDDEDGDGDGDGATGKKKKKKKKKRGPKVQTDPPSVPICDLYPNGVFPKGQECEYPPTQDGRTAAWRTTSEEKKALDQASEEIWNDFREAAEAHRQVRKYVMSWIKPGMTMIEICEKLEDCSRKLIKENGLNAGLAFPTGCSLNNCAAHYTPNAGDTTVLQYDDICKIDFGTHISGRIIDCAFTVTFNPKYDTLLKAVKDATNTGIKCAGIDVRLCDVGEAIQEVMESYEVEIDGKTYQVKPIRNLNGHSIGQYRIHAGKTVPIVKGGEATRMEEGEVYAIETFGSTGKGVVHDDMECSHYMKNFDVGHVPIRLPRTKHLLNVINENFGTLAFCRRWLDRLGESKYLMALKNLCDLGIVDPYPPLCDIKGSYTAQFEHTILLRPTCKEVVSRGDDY

N[C@H](CC1CCCCC1)C(O)C(=O)NCCc1ccc(F)cc1 (mixture of isomers) [Example 142, (2RS,3R)-3-amino-4-cyclohexyl-N-(4-fluorophenethyl)-2-hydroxybutanamide hydrochloride]
IC50 [1]: 400 nM

N[C@H](CC1CCCCC1)C(O)C(=O)NCCCc1ccccc1 (mixture of isomers) [Example 109, (2RS,3R)-3-Amino-4-cyclohexyl-2-hydroxy-N-(3-phenylpropyl)butanamide Hydrochloride]
IC50 [1]: 1700 nM

N[C@H](CC1CCCCC1)C(O)C(=O)Nc1ccc(Cl)cc1 (mixture of isomers) [Example 147, (2RS,3R)-3-amino-N-(4-chlorophenyl)-4-cyclohexyl-2-hydroxybutanamide]
IC50 [1]: 1000 nM

CC(C)(C)C1CCC(NC(=O)C(O)[C@H](N)CC2CCCCC2)CC1 (mixture of isomers) [Example 111, (2RS,3R)-3-Amino-N-(4-(tert-butyl)cyclohexyl)-4-cyclohexyl-2-hydroxybutanamide Hydrochloride]
IC50 [1]: 8200 nM

CCOC(=O)CCNC(=O)C(O)[C@H](N)CCSCC (stereo partly drawn) [Example 14, (2RS,3R)-N-(3-(carboethoxy)ethyl)-3-amino-2-hydroxy-5-(ethylthio)pentanamide hydrochloride]
IC50 [1]: 720 nM

CCSCC[C@@H](N)C(O)C(=O)NCCCCc1ccccc1 (stereo partly drawn) [Example 13, (2RS,3R)-N-(4-phenyl)butyl)-3-amino-2-hydroxy-5-(ethylthio)pentanamide hydrochloride]
IC50 [1]: 1100 nM

CC(Cc1cccc(C(F)(F)F)c1)NC(=O)C(O)[C@H](N)CC1CCCCC1 (mixture of isomers) [Example 210, (2RS,3R)-3-amino-4-cyclohexyl-2-hydroxy-N-(1-methyl-2-(3-(trifluoromethyl)phenyl)ethyl)butanamide Hydrochloride]
IC50 [1]: 2300 nM

N[C@H](CC1CCCCC1)C(O)C(=O)NCc1nc2ccccc2[nH]1 (stereo partly drawn) [Example 60, (2RS,3R) N-(2-aminomethylbenzimidazolyl) 3-amino-2-hydroxy-4-cyclohexyl)butanamide hydrochloride]
IC50 [1]: 18000 nM

COc1ccccc1NC(=O)C(O)[C@H](N)CC1CCCCC1 (mixture of isomers) [Example 146, (2RS,3R)-3-amino-4-cyclohexyl-2-hydroxy-N-(2-methoxyphenyl)butanamide]
IC50 [1]: 1500 nM

CCOc1cccc(NC(=O)C(O)[C@H](N)CC2CCCCC2)c1 (mixture of isomers) [Example 224, (2RS,3R)-3-amino-4-cyclohexyl-N-(3-ethoxyphenyl)-2-hydroxybutanamide Hydrochloride]
IC50 [1]: 430 nM

COc1cccc(CCNC(=O)C(O)[C@H](N)CC2CCCCC2)c1 (mixture of isomers) [Example 196, (2RS,3R)-3-amino-4-cyclohexyl-2-hydroxy-N-(3-methoxyphenethyl)butanamide hydrochloride]
IC50 [1]: 820 nM

N[C@H](Cc1ccccc1)C(O)C(=O)NCCCCc1ccccc1 (mixture of isomers) [Example 22, (2RS,3R)-N-(4-phenylbutyl)-3-amino-2-hydroxy-4-phenyl-butanamide hydrochloride]
IC50 [1]: 3400 nM

COc1ccc(CCNC(=O)C(O)[C@H](N)CC2CCCCC2)cc1 (mixture of isomers) [Example 195, (2RS,3R)-3-amino-4-cyclohexyl-2-hydroxy-N-(4-methoxyphenethyl)butanamide hydrochloride]
IC50 [1]: 1300 nM

N[C@H](CC1CCCCC1)C(O)C(=O)NCCc1ccccc1 (mixture of isomers) [Example 192, (2RS,3R)-3-amino-4-cyclohexyl-2-hydroxy-N-phenethylbutanamide hydrochloride]
IC50 [1]: 1200 nM

CC(NC(=O)C(O)[C@H](N)CC1CCCCC1)C12CC3CC(CC(C3)C1)C2 (mixture of isomers) [Example 233, (2RS,3R)-N-(1-(1-adamantyl)ethyl)-3-amino-4-cyclohexyl-2-hydroxybutanamide Hydrochloride]
IC50 [1]: 2700 nM

CCOc1ccccc1NC(=O)C(O)[C@H](N)CC1CCCCC1 (mixture of isomers) [Example 175, (2RS,3R)-3-amino-4-cyclohexyl-N-(2-ethoxyphenyl)-2-hydroxybutanamide hydrochloride]
IC50 [1]: 2100 nM

N[C@H](CC1CCCCC1)C(O)C(=O)NCCCn1ccnc1 (stereo partly drawn) [Example 74, ((2RS,3R)-3-amino-2-hydroxy-4-cyclohexyl)butanoyl-(3-imidazolylpropyl)amidedihydrochloride]
IC50 [1]: 30000 nM

CCOC(=O)[C@H](CO)NC(=O)C(O)[C@H](N)CCSCC (stereo partly drawn) [Example 36, (2RS,3R)-N-((1-(2-hydroxy)-1-ethoxycarboxyethyl) 3-amino-2-hydroxy-4-ethylthio)pentanamide hydrochloride]
IC50 [1]: 140 nM

CC(=O)Nc1ccc(S(=O)(=O)NCCCCNC(=O)C(O)[C@H](N)CC2CCCCC2)cc1 (stereo partly drawn) [Example 86, (2RS,3R)-N-(4-(((4-(acetylamiono)phenyl)sulfonyl)amino)butyl)-3-amino-4-cyclohexyl-2-hydroxybutanamide hydrochloride]
IC50 [1]: 1700 nM

N[C@H](CC1CCCCC1)C(O)C(=O)N[C@H]1C[C@@H]1c1ccccc1 (mixture of isomers) [Example 229, (2RS,3R)-3-amino-4-cyclohexyl-2-hydroxy-N-((1S,2R)-2-phenylcyclopropyl)butanamide Hydrochloride]
IC50 [1]: 1200 nM

N[C@H](CC1CCCCC1)C(O)C(=O)NCc1cccc(C(F)(F)F)c1 (stereo partly shown) [Example 157]
IC50 [1]: 1600 nM

NCCCCNC(=O)C(O)[C@H](N)CC1CCCCC1 (stereo partly drawn) [Example 82, (2RS,3R)-3-amino-2-hydroxy-4-cyclohexyl)butanoyl-(4-aminobutyl)amide dihydrochloride]
IC50 [1]: 38000 nM

CC(C)(C)CC(C)(C)NC(=O)C(O)[C@H](N)CC1CCCCC1 (mixture of isomers) [Example 230, (2RS,3R)-3-amino-4-cyclohexyl-2-hydroxy-N-(1,1,3,3-tetramethylbutyl)butanamide Hydrochloride]
IC50 [1]: 34000 nM

COc1ccc2[nH]cc(CCNC(=O)C(O)[C@H](N)CC3CCCCC3)c2c1 (stereo partly shown) [Example 58]
IC50 [1]: 3500 nM

CCSCC[C@@H](NCC(=O)OC)C(O)C(=O)NCCCCc1ccccc1 (stereo partly drawn) [Example 44, (2RS,3R)-N-((Phenylbutyryl)-3-methoxycarbonylmethylamino-2-hydroxy-4-ethylthio)pentanamide hydrochloride]
IC50 [1]: 13000 nM

CCOC(=O)[C@H](CF)NC(=O)C(O)[C@H](N)CC1CCCCC1 (stereo partly drawn) [Example 135, ethyl (2RS,3R,2'R)-2-((3-amino-4-cyclohexyl-2-hydroxybutanoyl)amino)-3-fluoropropanoate trifluoroacetate]
IC50 [1]: 3200 nM

CCSC(C)[C@H](NC(=O)OC(C)(C)C)C(O)C(=O)NC(=O)CCCc1ccccc1 (mixture of isomers) [Example 37, (2RS,3R)-N-((phenylbutyryl)-3-tert-butoxycarbonylamino-2-hydroxy-4-ethylthio)pentanamide]
IC50 (recombinant MetAP2 4 μg/mL, read-out: IC50): 16000 nM

C[C@H](NC(=O)C(O)[C@H](N)CC1CCCCC1)C(=O)Nc1ccc([N+](=O)[O-])cc1O (stereo partly drawn) [Example 71, ((2RS,3R)-3-amino-2-hydroxy-4-cyclohexyl)butanoyl-L-alanyl-(4-nitro-2-hydroxyphen-1-yl)amide hydrochloride]
IC50 [1]: 12000 nM

Cc1cccc(CNC(=O)C(O)[C@H](N)CC2CCCCC2)c1 (mixture of isomers) [Example 191, (2RS,3R)-3-amino-4-cyclohexyl-2hydroxy-N-(3-methylbenzyl)butanamide hydrochloride]
IC50 [1]: 2500 nM

N[C@H](CC1CCCCC1)C(O)C(=O)NCCc1ccccc1Cl (mixture of isomers) [Example 108, (2RS,3R)-3-Amino-N-(2-chlorophenethyl)-4-cyclohexyl-2-hydroxybutanamide Hydrochloride]
IC50 [1]: 630 nM

COc1ccc(CNC(=O)C(O)[C@H](N)CC2CCCCC2)cc1 (mixture of isomers) [Example 186, (2RS,3R)-3-amino-4-cyclohexyl-2-hydroxy-N-(4-methoxybenzyl)butanamide hydrochloride]
IC50 [1]: 1100 nM

COc1ccc(C(F)(F)F)cc1NC(=O)C(O)[C@H](N)CC1CCCCC1 (mixture of isomers) [Example 220, (2RS,3R)-3-amino-4-cyclohexyl-2-hydroxy-N-(2-methoxy-5-(trifluoromethyl)phenyl)butanamide Hydrochloride]
IC50 [1]: 5500 nM

COc1ccc(OC)c(NC(=O)C(O)[C@H](N)CC2CCCCC2)c1 (mixture of isomers) [Example 177, (2RS,3R)-3-amino-4cyclohexyl-N-(2,5-dimethoxyphenyl)-2-hydroxybutanamide hydrochloride]
IC50 [1]: 2000 nM

N[C@H](CC1CCCCC1)C(O)C(=O)NCc1ccc(Cl)cc1 (mixture of isomers) [Example 193, (2RS,3R)-3-amino-N-(4-chlorobenzyl)-4-cyclohexyl-2-hydroxybutanamide hydrochloride]
IC50 [1]: 2500 nM

CSCC[C@@H](N)C(O)C(=O)NCCCCc1ccccc1 (mixture of isomers) [Example 7, (2RS,3R)-N-(4-phenylbutyl)-3-amino-2-hydroxy-5-(methylthio)pentanamide hydrochloride]
IC50 [1]: 2000 nM

N[C@H](CC1CCCCC1)C(O)C(=O)NCCCCc1ccccc1 (stereo partly shown) [Example 30, hydrochloride]
IC50 [1]: 1100 nM

CC(C)CC(C)NC(=O)C(O)[C@H](N)CC1CCCCC1 (mixture of isomers) [Example 231, (2RS,3R)-3-amino-4-cyclohexyl-N-(1,3-dimethylbutyl)-2-hydroxybutanamide Hydrochloride]
IC50 [1]: 2500 nM

From US6242494A, “Substituted β-amino acid inhibitors of methionine aminopeptidase-2” (Abbott Laboratories, priority 1999, dated 2001)
